Non-standard residues stand in square brackets, D forms with d. Residues, ends and D or L forms follow the SMILES beside them. Cya = N[C@@H](CS(=O)(=O)O)C(=O)O; Aad = N[C@@H](CCCC(=O)O)C(=O)O; pGlu = O=C1CC[C@@H](C(=O)O)N1
Each compound was assayed on mAb 1H11 (assay: OSTEOMARK competitive immunoassay testing apparent affinity of synthetic peptides for mAb 1H11). Details: nanomoles Bone Collagen Equivalents equivalent to 1 μg peptide; back fit into OSTEOMARK standard curve; values between 0.5 and 1 OD averaged.
Type: binding
Description: Generally, a milligram per mL solution of the peptide was made in PBS. The absorbence at A280 was read and the concentration confirmed. Dilutions of the peptide were then made in a buffer such as OSTEOMARK (TM) calibrator diluent (OSTEOMARK Assay, Ostex International, Seattle, Wash.). Working strength concentrations were between 10 and 0.01 micrograms per milliliter.
To test the apparent affinity of the synthetic peptides for mAb 1H11, the OSTEOMARK assay was run using OSTEOMARK kits and components, including monoclonal antibody 1H11. A standard curve was run using OSTEOMARK calibrators. Peptide samples were generally tested at 10, 3, 1, and down to 0.01 μG per mL. The standard OSTEOMARK curve was generated using a four parameter logistic curve fit program (MedData Inc., N.Y., N.Y.). Peptide values were back fit into the standard curve and values were reported in picomoles Bone Collagen Equivalents (BCE)/mL (which equals nanomolar BCE, or nM BCE).
Values in the Table are reported as the number of nanomoles of BCE equivalent to a microgram of a given peptide. Antibody binding values below 500 nMole BCE were considered to be commercially insignificant.

| Structure (SMILES) | Results: peptide binding to mAb 1H11, 1 μg synthetic peptide = X nmole BCE [nmole BCE] |
| --- | --- |
| CC(C)[C@H](NC(=O)CNC(=O)[C@H](C)NC(=O)CNC(=O)[C@H](CC(=O)O)NC(=O)[C@H](Cc1ccc(O)cc1)NC(=O)[C@@H]1CCC(=O)N1)C(=O)NCC(=O)O [SEQ ID NO:1, J Y D G A G V G] ([pGlu]YDGAGVG-OH) | 483 |
| CC(C)[C@H](NC(=O)CNC(=O)[C@H](CCC(=O)O)NC(=O)CNC(=O)[C@H](CC(=O)O)NC(=O)[C@H](Cc1ccc(O)cc1)NC(=O)[C@@H]1CCC(=O)N1)C(=O)NCC(=O)O [SEQ ID NO:4, J Y D G E G V G] ([pGlu]YDGEGVG-OH) | 2400 |
| CC(C)[C@H](NC(=O)CNC(=O)[C@H](Cc1ccccc1)NC(=O)CNC(=O)[C@H](CC(=O)O)NC(=O)[C@H](Cc1ccc(O)cc1)NC(=O)[C@@H]1CCC(=O)N1)C(=O)NCC(=O)O [SEQ ID NO:5, J Y D G F G V G] ([pGlu]YDGFGVG-OH) | 365 |
| CC(C)[C@H](NC(=O)CNC(=O)CNC(=O)CNC(=O)[C@H](CC(=O)O)NC(=O)[C@H](Cc1ccc(O)cc1)NC(=O)[C@@H]1CCC(=O)N1)C(=O)NCC(=O)O [SEQ ID NO:6, J Y D G G G V G] ([pGlu]YDGGGVG-OH) | 114 |
| CC(C)[C@H](NC(=O)CNC(=O)[C@H](Cc1c[nH]cn1)NC(=O)CNC(=O)[C@H](CC(=O)O)NC(=O)[C@H](Cc1ccc(O)cc1)NC(=O)[C@@H]1CCC(=O)N1)C(=O)NCC(=O)O [SEQ ID NO:7, J Y D G H G V G] ([pGlu]YDGHGVG-OH) | 650 |
| CC[C@H](C)[C@H](NC(=O)CNC(=O)[C@H](CC(=O)O)NC(=O)[C@H](Cc1ccc(O)cc1)NC(=O)[C@@H]1CCC(=O)N1)C(=O)NCC(=O)N[C@H](C(=O)NCC(=O)O)C(C)C [SEQ ID NO:8, J Y D G I G V G] ([pGlu]YDGIGVG-OH) | 250 |
| CC(C)C[C@H](NC(=O)CNC(=O)[C@H](CC(=O)O)NC(=O)[C@H](Cc1ccc(O)cc1)NC(=O)[C@@H]1CCC(=O)N1)C(=O)NCC(=O)N[C@H](C(=O)NCC(=O)O)C(C)C [SEQ ID NO:10, J Y D G L G V G] ([pGlu]YDGLGVG-OH) | 230 |
| CSCC[C@H](NC(=O)CNC(=O)[C@H](CC(=O)O)NC(=O)[C@H](Cc1ccc(O)cc1)NC(=O)[C@@H]1CCC(=O)N1)C(=O)NCC(=O)N[C@H](C(=O)NCC(=O)O)C(C)C [SEQ ID NO:11, J Y D G M G V G] ([pGlu]YDGMGVG-OH) | 183 |
| CC(C)[C@H](NC(=O)CNC(=O)[C@H](CC(N)=O)NC(=O)CNC(=O)[C@H](CC(=O)O)NC(=O)[C@H](Cc1ccc(O)cc1)NC(=O)[C@@H]1CCC(=O)N1)C(=O)NCC(=O)O [SEQ ID NO:12, J Y D G N G V G] ([pGlu]YDGNGVG-OH) | 135 |
| CC(C)[C@H](NC(=O)CNC(=O)[C@@H]1CCCN1C(=O)CNC(=O)[C@H](CC(=O)O)NC(=O)[C@H](Cc1ccc(O)cc1)NC(=O)[C@@H]1CCC(=O)N1)C(=O)NCC(=O)O [SEQ ID NO:13, J Y D G P G V G] ([pGlu]YDGPGVG-OH) | 2056 |
| CC(C)[C@H](NC(=O)CNC(=O)[C@H](CCC(N)=O)NC(=O)CNC(=O)[C@H](CC(=O)O)NC(=O)[C@H](Cc1ccc(O)cc1)NC(=O)[C@@H]1CCC(=O)N1)C(=O)NCC(=O)O [SEQ ID NO:14, J Y D G Q G V G] ([pGlu]YDGQGVG-OH) | 148 |
| CC(C)[C@H](NC(=O)CNC(=O)[C@H](CCCNC(=N)N)NC(=O)CNC(=O)[C@H](CC(=O)O)NC(=O)[C@H](Cc1ccc(O)cc1)NC(=O)[C@@H]1CCC(=O)N1)C(=O)NCC(=O)O [SEQ ID NO:15, J Y D G R G V G] ([pGlu]YDGRGVG-OH) | 23 |
| CC(C)[C@H](NC(=O)CNC(=O)[C@H](CO)NC(=O)CNC(=O)[C@H](CC(=O)O)NC(=O)[C@H](Cc1ccc(O)cc1)NC(=O)[C@@H]1CCC(=O)N1)C(=O)NCC(=O)O [SEQ ID NO:16, J Y D G S G V G] ([pGlu]YDGSGVG-OH) | 30 |
| CC(C)[C@H](NC(=O)CNC(=O)[C@@H](NC(=O)CNC(=O)[C@H](CC(=O)O)NC(=O)[C@H](Cc1ccc(O)cc1)NC(=O)[C@@H]1CCC(=O)N1)[C@@H](C)O)C(=O)NCC(=O)O [SEQ ID NO:17, J Y D G T G V G] ([pGlu]YDGTGVG-OH) | 252 |
| CC(C)[C@H](NC(=O)CNC(=O)[C@H](CC(=O)O)NC(=O)[C@H](Cc1ccc(O)cc1)NC(=O)[C@@H]1CCC(=O)N1)C(=O)NCC(=O)N[C@H](C(=O)NCC(=O)O)C(C)C [SEQ ID NO:18, J Y D G V G V G] ([pGlu]YDGVGVG-OH) | 400 |
| CC(C)[C@H](NC(=O)CNC(=O)[C@H](Cc1c[nH]c2ccccc12)NC(=O)CNC(=O)[C@H](CC(=O)O)NC(=O)[C@H](Cc1ccc(O)cc1)NC(=O)[C@@H]1CCC(=O)N1)C(=O)NCC(=O)O [SEQ ID NO:19, J Y D G W G V G] ([pGlu]YDGWGVG-OH) | 1300 |
| CC(C)[C@H](NC(=O)CNC(=O)[C@H](Cc1ccc(O)cc1)NC(=O)CNC(=O)[C@H](CC(=O)O)NC(=O)[C@H](Cc1ccc(O)cc1)NC(=O)[C@@H]1CCC(=O)N1)C(=O)NCC(=O)O [SEQ ID NO:20, J Y D G Y G V G] ([pGlu]YDGYGVG-OH) | 104 |
| CC(C)[C@H](NC(=O)CNC(=O)[C@H](CS(=O)(=O)O)NC(=O)CNC(=O)[C@H](CC(=O)O)NC(=O)[C@H](Cc1ccc(O)cc1)NC(=O)[C@@H]1CCC(=O)N1)C(=O)NCC(=O)O [SEQ ID NO:26, j Y D G X^2 G V G] ([pGlu]YDG[Cya]GVG-OH) | 1000 |
| CC(C)[C@H](NC(=O)CNC(=O)[C@H](CCC(=O)O)NC(=O)[C@H](C)NC(=O)[C@H](CC(=O)O)NC(=O)[C@H](Cc1ccc(O)cc1)NC(=O)[C@@H]1CCC(=O)N1)C(=O)NCC(=O)O [SEQ ID NO:27, J Y D A E G V G] ([pGlu]YDAEGVG-OH) | < 50 |
| CC(C)[C@H](NC(=O)[C@H](C)NC(=O)[C@H](CCC(=O)O)NC(=O)CNC(=O)[C@H](CC(=O)O)NC(=O)[C@H](Cc1ccc(O)cc1)NC(=O)[C@@H]1CCC(=O)N1)C(=O)NCC(=O)O [SEQ ID NO:28, J Y D G E A V G] ([pGlu]YDGEAVG-OH) | < 50 |
| CC(C)[C@H](NC(=O)CNC(=O)[C@H](CCC(=O)O)NC(=O)CNC(=O)[C@H](CCC(=O)O)NC(=O)[C@H](Cc1ccc(O)cc1)NC(=O)[C@@H]1CCC(=O)N1)C(=O)NCC(=O)O [SEQ ID NO:30, J Y E G E G V G] ([pGlu]YEGEGVG-OH) | 3000 |
| CC(C)[C@H](NC(=O)CNC(=O)[C@H](CC(=O)O)NC(=O)CNC(=O)[C@H](CCC(=O)O)NC(=O)[C@H](Cc1ccc(O)cc1)NC(=O)[C@@H]1CCC(=O)N1)C(=O)NCC(=O)O [SEQ ID NO:32, J Y E G D G V G] ([pGlu]YEGDGVG-OH) | 1000 |
| CC(C)[C@H](NC(=O)CNC(=O)[C@H](CCCC(=O)O)NC(=O)CNC(=O)[C@H](CC(=O)O)NC(=O)[C@H](Cc1ccc(O)cc1)NC(=O)[C@@H]1CCC(=O)N1)C(=O)NCC(=O)O [SEQ ID NO:34, J Y D G X^4 G V G] ([pGlu]YDG[Aad]GVG-OH) | 750 |

Same assay, conditions: nanomoles Bone Collagen Equivalents equivalent to 1 μg peptide; back fit into OSTEOMARK standard curve; values between 0.5 and 1 OD averaged; listed as 3

| Structure (SMILES) | Results: peptide binding to mAb 1H11, 1 μg synthetic peptide = X nmole BCE [nmole BCE] |
| --- | --- |
| CC(C)[C@H](NC(=O)CNC(=O)[C@H](CC(=O)O)NC(=O)CNC(=O)[C@H](CC(=O)O)NC(=O)[C@H](Cc1ccc(O)cc1)NC(=O)[C@@H]1CCC(=O)N1)C(=O)NCC(=O)O [SEQ ID NO:3, J Y D G D G V G] ([pGlu]YDGDGVG-OH) | 1840 |

Same assay, conditions: nanomoles Bone Collagen Equivalents equivalent to 1 μg peptide; back fit into OSTEOMARK standard curve; values between 0.5 and 1 OD averaged; listed as 31

| Structure (SMILES) | Results: peptide binding to mAb 1H11, 1 μg synthetic peptide = X nmole BCE [nmole BCE] |
| --- | --- |
| CC(C)[C@H](NC(=O)CNC(=O)[C@H](CC(=O)O)NC(=O)CNC(=O)[C@H](CC(=O)O)NC(=O)[C@H](Cc1ccc(O)cc1)NC(=O)[C@@H]1CCC(=O)N1)C(=O)NCC(=O)O [SEQ ID NO:31, J Y D G D G V G] ([pGlu]YDGDGVG-OH) | 1400 |

Same assay, conditions: synthetic peptide, antibody inhibition assay

| Structure (SMILES) | binding to mAb 1H11 (in words) |
| --- | --- |
| CC(C)[C@H](NC(=O)CNC(=O)[C@H](CCC(=O)O)NC(=O)CNC(=O)[C@H](CC(=O)O)NC(=O)[C@H](Cc1ccc(O)cc1)NC(=O)[C@@H](N)CCC(=O)O)C(=O)NCC(=O)O [EYDGEGVG] (H-EYDGEGVG-OH) | not recognized |
| CC(C)[C@H](NC(=O)CNC(=O)[C@H](CCC(=O)O)NC(=O)CNC(=O)[C@H](CC(=O)O)NC(=O)[C@H](Cc1ccc(O)cc1)NC(=O)[C@@H]1CCC(=O)N1)C(=O)NCC(=O)O [SEQ ID NO:4, J Y D G E G V G] ([pGlu]YDGEGVG-OH) | Improved binding |
| CC(C)[C@H](NC(=O)CNC(=O)[C@H](Cc1c[nH]cn1)NC(=O)CNC(=O)[C@H](CC(=O)O)NC(=O)[C@H](Cc1ccc(O)cc1)NC(=O)[C@@H]1CCC(=O)N1)C(=O)NCC(=O)O [SEQ ID NO:7, J Y D G H G V G] ([pGlu]YDGHGVG-OH) | more limited degree of 1H11 binding |
| CC(C)[C@H](NC(=O)CNC(=O)[C@H](CCC(=O)O)NC(=O)[C@H](C)NC(=O)[C@H](CC(=O)O)NC(=O)[C@H](Cc1ccc(O)cc1)NC(=O)[C@@H]1CCC(=O)N1)C(=O)NCC(=O)O [SEQ ID NO:27, J Y D A E G V G] ([pGlu]YDAEGVG-OH) | substantially eliminates mAb 1H11 binding affinity |
| CC(C)[C@H](NC(=O)[C@H](C)NC(=O)[C@H](CCC(=O)O)NC(=O)CNC(=O)[C@H](CC(=O)O)NC(=O)[C@H](Cc1ccc(O)cc1)NC(=O)[C@@H]1CCC(=O)N1)C(=O)NCC(=O)O [SEQ ID NO:28, J Y D G E A V G] ([pGlu]YDGEAVG-OH) | loss of mAb 1H11 binding affinity |

Same assay, conditions: synthetic peptide, antibody inhibition assay; listed as Gln-Tyr-Asp-Gly-Glu-Gly-Val-Gly

| Structure (SMILES) | binding to mAb 1H11 (in words) |
| --- | --- |
| CC(C)[C@H](NC(=O)CNC(=O)[C@H](CCC(=O)O)NC(=O)CNC(=O)[C@H](CC(=O)O)NC(=O)[C@H](Cc1ccc(O)cc1)NC(=O)[C@@H]1CCC(=O)N1)C(=O)NCC(=O)O [SEQ ID NO:4, J Y D G E G V G] ([pGlu]YDGEGVG-OH) | comparable to that of the cross-linked NTx antigen |

Source: patent US5817755A, “Synthetic peptide analogs of cross-linked N-telopeptides of type I collagen” (Washington Research Foundation, priority 1997, dated 1998)
